Experimental data reported in US6066628A, “Non-iron metalloporphyrins and methods of use” (Emory University, priority 1998, dated 2000).
In brackets after ≈: the same amount, converted by molar mass. Several values for one entry are separate records, joined by “and”; a condition that tells them apart may be missing. Equal entries are not always repeated. Where two headings read alike, the source gives them in different places.

What was measured:
bacteria = format: cell-based; settings: for MICs: porphyrins without Ga ions, all tested bacteria
Y. enterocolitica [1] = assay: microbe, parasite or virus in culture; format: cell-based
S. aureus [2] = format: cell-based, Staphylococcus aureus; settings: for MIC: S. aureus IR2419, dark (Table 10); for antibacterial activity: S. aureus; for Minimal inhibitory concentration (MIC): methicillin-resistant S. aureus IR219, Nutrient broth (Table 2)
M. smegmatis [3] = format: cell-based, Mycobacterium smegmatis; settings: for MIC / Minimal inhibitory concentration (MIC): M. smegmatis LR222; for MIC: dark (Table 10); for antibacterial activity: M. smegmatis; for Minimal inhibitory concentration (MIC): LB + Tween 80 (Table 2)
Y. enterocolitica [4] = assay: Minimal bactericidal concentration; format: cell-based; settings: reduces plating efficiency more than 99.9%, minimal exposure to light; for MBC: Yersinia enterocolitica
S. aureus [5] = assay: Minimal bactericidal concentration; format: cell-based, Staphylococcus aureus; settings: reduces plating efficiency more than 99.9%, minimal exposure to light; for MBC: Staphylococcus aureus
Method: Minimal bactericidal concentrations (MBCs) were determined essentially the same way as MICs except that the amount of killing with a particular concentration of porphyrin derivative was determined by plating on solid microbiological media (LB plates or LB+Tween 80). Media were solidified by the incorporation of 1.5% agar (Difco Laboratories). Concentrations of porphyrins that produced 99.9% reduction in bacterial counts were considered bactericidal [Hindler et al. (1994) supra].
MBC were determined by plating bacterial cultures that have been incubate
in the presence of MPs at concentrations higher than MIC. MBC was defined
as a concentration of a particular MP which reduces the plating efficienc
more than 99.9%. Experiments were done with minimal exposure to light
(addition of porphyrins waa done in the presence of artifical light).

M. smegmatis [6] = assay: Minimal bactericidal concentration; format: cell-based, Mycobacterium smegmatis; settings: reduces plating efficiency more than 99.9%, minimal exposure to light; for MBC: Mycolicibacterium smegmatis
S. aureus [7] = assay: Competition of heme/protoporphyrin IX with Ga-PPIX antibacterial activity; format: cell-based, Staphylococcus aureus; settings: for antagonism of Ga-PPIX antibacterial activity: heme 10- to 100-fold molar excess, protoporphyrin IX 100-fold excess
M. smegmatis [8] = assay: as above; settings: for antagonism of Ga-PPIX antibacterial activity: heme 10- to 100-fold molar excess, protoporphyrin IX 20- and 100-fold excess
Y. enterocolitica [9] = assay: as above
[10] = iron restriction / 2,2'-dipyridyl
[11] = Staphylococcus aureus, read-out: MIC
[12] = Mycolicibacterium smegmatis, read-out: MIC
[13] = +1 μg/ml Ga-PPIX, competitor 1 μg/ml
[14] = +1 μg/ml Ga-PPIX, competitor 10 μg/ml
[15] = +1 μg/ml Ga-PPIX, competitor 20 μg/ml
[16] = +1 μg/ml Ga-PPIX, competitor 100 μg/ml
[17] = -1 μg/ml Ga-PPIX (without Ga-PPIX), 1 μg/ml
[18] = -1 μg/ml Ga-PPIX (without Ga-PPIX), 10 μg/ml
[19] = -1 μg/ml Ga-PPIX (without Ga-PPIX), 20 μg/ml
[20] = -1 μg/ml Ga-PPIX (without Ga-PPIX), 100 μg/ml

CN[C@H](CC(C)C)C(=O)N[C@H]1C(=O)N[C@@H](CC(N)=O)C(=O)N[C@H]2C(=O)N[C@H]3C(=O)N[C@H](C(=O)N[C@H](C(=O)O)c4cc(O)cc(O)c4-c4cc3ccc4O)[C@H](O)c3ccc(c(Cl)c3)Oc3cc2cc(c3O[C@@H]2O[C@H](CO)[C@@H](O)[C@H](O)[C@H]2O[C@H]2C[C@](C)(N)[C@H](O)[C@H](C)O2)Oc2ccc(cc2Cl)[C@H]1O [vancomycin, reference compound]
effect of iron restriction medium conditions on MIC (bacteria): not affected

C=Cc1c(C)c2cc3nc(c(CC(=O)O)c4[nH]c(cc5nc(cc1[nH]2)C(C)=C5CC)c(C)c4C(=O)O)[C@@H](CCC(=O)O)[C@@H]3C [Ce6, chlorin e6, reference compound]
MIC (Y. enterocolitica [1]): 20 and > 10 | MIC (S. aureus [2]): 20 µg/mL (≈ 33.5 µM) | MIC (M. smegmatis [3]): 20 µg/mL (≈ 33.5 µM) | MICs (bacteria): very large MICs

O=C(N[C@H](CO)[C@H](O)c1ccc([N+](=O)[O-])cc1)C(Cl)Cl [chloramphenicol, reference compound]
effect of iron restriction medium conditions on MIC (bacteria; [10]): not affected

CCC1=C(CC)c2cc3[nH]c(cc4nc(cc5[nH]c(cc1n2)c(CC)c5CC)C(CC)=C4CC)c(CC)c3CC.[Ga] [GA-OEP]
MIC (Y. enterocolitica [1]; in µg/mL): 20 | MIC (S. aureus [2]): 10 µg/mL | MIC (M. smegmatis [3]): 5 µg/mL | Minimal bactericidal concentration (MBC) (Y. enterocolitica [4]): > 20 | Minimal bactericidal concentration (MBC) (S. aureus [5]): 5 | Minimal bactericidal concentration (MBC) (M. smegmatis [6]): 10

CCC1=C(C)C2=Cc3c(C)c(CCC(=O)O)c4[n]3[Ga][n]3c(c(C)c(CC)c3=CC3=NC(=C4)C(CCC(=O)O)=C3C)=CC1=N2 [GA-MP-IX]
MIC (Y. enterocolitica [1]; in µg/mL): 2.5 and 5 | MIC (S. aureus [2]): 1.6 µg/mL | MIC (M. smegmatis [3]): 0.4 µg/mL | Minimal bactericidal concentration (MBC) (Y. enterocolitica [4]): 5 | Minimal bactericidal concentration (MBC) (S. aureus [5]): > 13 | Minimal bactericidal concentration (MBC) (M. smegmatis [6]): 10

O=C(O)CCC1=C(CC(=O)O)c2cc3[nH]c(cc4nc(cc5[nH]c(cc1n2)c(CC(=O)O)c5CCC(=O)O)C(CC(=O)O)=C4CCC(=O)O)c(CC(=O)O)c3CCC(=O)O [UP-1, uroporphyrin I, reference compound]
HemR requirement of bacterial sensitivity (Y. enterocolitica [1]): did not require expression of HemR | MIC (Y. enterocolitica [1]; Yersinia enterocolitica): 10 µg/mL (≈ 12 µM) | antibacterial activity (S. aureus [2]): largely inactive | MIC (S. aureus [2]; [11]): 20 µg/mL (≈ 24.1 µM) | antibacterial activity (M. smegmatis [3]): largely inactive | MIC (M. smegmatis [3]; [12]): 20 µg/mL (≈ 24.1 µM) | Minimal bactericidal concentration (MBC) (Y. enterocolitica [4]): 5/10 | MBC (S. aureus [5]): 20 µg/mL (≈ 24.1 µM) | MBC (M. smegmatis [6]): 10 µg/mL (≈ 12 µM)

C=CC1=C(C)c2cc3[n-]c(cc4[n-]c(cc5nc(cc1n2)C(C)=C5C=C)c(C)c4CCC(=O)[O-])c(CCC(=O)[O-])c3C.[H+].[H+].[Ni+2] [Ni-PPIX]
Minimal inhibitory concentration (MIC) (Y. enterocolitica [1]): > 40 | Minimal inhibitory concentration (MIC) (S. aureus [2]): > 40 µg/mL | Minimal inhibitory concentration (MIC) (M. smegmatis [3]): 20 µg/mL

C=CC1=C(C)C2=Cc3c(C=C)c(C)c4[n]3[Gd]([Cl])[n]3c(c(C)c(CCC(=O)O)c3=CC3=NC(=C4)C(C)=C3CCC(=O)O)=CC1=N2 [Gd-PPIX, Gadolinium protoporphyrin IX]
Minimal bactericidal concentration (MBC) (Y. enterocolitica [4]): 10

C1=CC2=NC1=Cc1ccc3[n]1[Ga][n]1c(ccc1=CC1=NC(=C3)C=C1)=C2 [GA-POR]
MIC (Y. enterocolitica [1]; in µg/mL): 20 | MIC (S. aureus [2]): 50 µg/mL | MIC (M. smegmatis [3]): 5 µg/mL

C=CC1=C(C)c2cc3[n-]c(cc4nc(cc5[n-]c(cc1n2)c(C)c5CCC(=O)O)C(CCC(=O)O)=C4C)c(C)c3C=C.[Pt+2] [Pt-PPIX, Platinum protoporphyrin IX]
Minimal inhibitory concentration (MIC) (Y. enterocolitica [1]): 30 | Minimal inhibitory concentration (MIC) (S. aureus [2]): 40 µg/mL | Minimal inhibitory concentration (MIC) (M. smegmatis [3]): 20 µg/mL

Gallium (+3) hematoporphyrin IX
antibacterial activity (bacteria): active against all microorganisms challenged

C=CC1=C(C)c2cc3[nH]c(cc4nc(cc5[nH]c(cc1n2)c(C)c5CCC(=O)O)C(CCC(=O)O)=C4C)c(C)c3C=C [PPIX, protoporphyrin IX]
MIC (S. aureus [2]; [11]): 50 µg/mL (≈ 88.9 µM) | MIC (M. smegmatis [3]; [12]): > 40 µg/mL | MBC (Y. enterocolitica [4]): > 40 µg/mL | MBC (S. aureus [5]): > 40 µg/mL | MBC (M. smegmatis [6]): > 20 µg/mL | growth (S. aureus [7]; [13]): - | growth (S. aureus [7]; [14]): - | growth (S. aureus [7]; [15]): - | growth (S. aureus [7]; [16]): + | growth (S. aureus [7]; [17]): + | growth (S. aureus [7]; [18]): + | growth (S. aureus [7]; [19]): + | growth (S. aureus [7]; [20]): + | antagonism of Ga-PPIX antibacterial activity (S. aureus [7]): some antagonizing effect | MICs (bacteria): very large MICs | growth (M. smegmatis [8]; [13]): - | growth (M. smegmatis [8]; [15]): + | growth (M. smegmatis [8]; [16]): + | growth (M. smegmatis [8]; [17]): + | growth (M. smegmatis [8]; [18]): + | growth (M. smegmatis [8]; [19]): + | growth (M. smegmatis [8]; [20]): + | antagonism of Ga-PPIX antibacterial activity (M. smegmatis [8]): antagonized | growth (Y. enterocolitica [9]; [13]): - | growth (Y. enterocolitica [9]; [14]): - | growth (Y. enterocolitica [9]; [15]): - | growth (Y. enterocolitica [9]; [16]): - | growth (Y. enterocolitica [9]; [17]): + | growth (Y. enterocolitica [9]; [18]): + | growth (Y. enterocolitica [9]; [19]): + | growth (Y. enterocolitica [9]; [20]): - | antagonism of Ga-PPIX antibacterial activity (Y. enterocolitica [9]; Y. enterocolitica fur mutant): not able to antagonize

C=CC1=C(C)c2cc3[n-]c(cc4[n-]c(cc5nc(cc1n2)C(C)=C5C=C)c(C)c4CCC(=O)O)c(CCC(=O)O)c3C.[Cu+2] [Cu-PPIX]
Minimal inhibitory concentration (MIC) (Y. enterocolitica [1]): 20 | Minimal inhibitory concentration (MIC) (S. aureus [2]): > 40 µg/mL | Minimal inhibitory concentration (MIC) (M. smegmatis [3]): 20 µg/mL

CCC1=C(CC)c2cc3[nH]c(cc4nc(cc5[nH]c(cc1n2)c(CC)c5CC)C(CC)=C4CC)c(CC)c3CC [OEP, octaethylporphine, reference compound]
MIC (Y. enterocolitica [1]; Yersinia enterocolitica): 5 µg/mL (≈ 9.35 µM) | MIC (S. aureus [2]; [11]): 10 µg/mL (≈ 18.7 µM) | MIC (M. smegmatis [3]; [12]): 10 µg/mL (≈ 18.7 µM) | MBC (Y. enterocolitica [4]): 5 µg/mL (≈ 9.35 µM) | Minimal bactericidal concentration (MBC) (S. aureus [5]): 5/10 | MBC (M. smegmatis [6]): 10 µg/mL (≈ 18.7 µM)

CC1(C)S[C@@H]2[C@H](NC(=O)[C@H](N)c3ccccc3)C(=O)N2[C@H]1C(=O)O [ampicillin, reference compound]
effect of iron restriction medium conditions on MIC (bacteria; [10]): not affected

C1=Cc2cc3ccc(cc4nc(cc5ccc(cc1n2)[nH]5)C=C4)[nH]3 [POR, porphine, reference compound]
MIC (Y. enterocolitica [1]; Yersinia enterocolitica, read-out: MIC): 30 µg/mL (≈ 96.7 µM) | MIC (Y. enterocolitica [1]; in µg/mL): 20 | MIC (S. aureus [2]; [11]): 50 µg/mL (≈ 161 µM) | MIC (M. smegmatis [3]; [12]): > 40 µg/mL | MICs (bacteria): very large MICs

C=CC1=C(C)c2cc3[n-]c(cc4[n-]c(cc5nc(cc1n2)C(C)=C5C=C)c(C)c4CCC(=O)O)c(CCC(=O)O)c3C.[Fe+2] [Fe-PPIX]
Minimal inhibitory concentration (MIC) (Y. enterocolitica [1]): > 40 | Minimal inhibitory concentration (MIC) (S. aureus [2]): > 40 µg/mL | Minimal inhibitory concentration (MIC) (M. smegmatis [3]): > 40 µg/mL | growth (S. aureus [7]; [13]): - | growth (S. aureus [7]; [14]): - | growth (S. aureus [7]; [15]): - | growth (S. aureus [7]; [16]): - | growth (S. aureus [7]; [17]): + | growth (S. aureus [7]; [18]): + | growth (S. aureus [7]; [19]): + | growth (S. aureus [7]; [20]): + | antagonism of Ga-PPIX antibacterial activity (S. aureus [7]): did not antagonize | toxic effect on S. aureus (S. aureus [7]; heme dissolved in 20 mM NaOH): not observed | growth (M. smegmatis [8]; [13]): - | growth (M. smegmatis [8]; [14]): - | growth (M. smegmatis [8]; [15]): - | growth (M. smegmatis [8]; [16]): - | growth (M. smegmatis [8]; [17]): + | growth (M. smegmatis [8]; [18]): + | growth (M. smegmatis [8]; [19]): + | growth (M. smegmatis [8]; [20]): + | antagonism of Ga-PPIX antibacterial activity (M. smegmatis [8]): did not antagonize | growth (Y. enterocolitica [9]; [13]): - | growth (Y. enterocolitica [9]; [14]): + | growth (Y. enterocolitica [9]; [15]): + | growth (Y. enterocolitica [9]; [16]): + | growth (Y. enterocolitica [9]; [17]): + | growth (Y. enterocolitica [9]; [18]): + | growth (Y. enterocolitica [9]; [19]): + | growth (Y. enterocolitica [9]; [20]): +

CCC1=C(C)c2cc3[nH]c(cc4nc(cc5[nH]c(cc1n2)c(C)c5CCC(=O)O)C(CCC(=O)O)=C4C)c(C)c3CC [MP-IX, mesoporphyrin IX, reference compound]
antibacterial activity (S. aureus [2]): largely inactive | MIC (S. aureus [2]; [11]): 20 µg/mL (≈ 35.3 µM) | antibacterial activity (M. smegmatis [3]): largely inactive | MIC (M. smegmatis [3]; [12]): > 40 µg/mL | MBC (Y. enterocolitica [4]): > 10 µg/mL | MBC (S. aureus [5]): > 13 µg/mL | MBC (M. smegmatis [6]): > 40 µg/mL
